{"source": "patent US20070010671A1", "about": "“Novel quinazoline derivatives and methods of treatment related to the use thereof” (priority 2003, published 2007)", "data": [{"molecular_target": "MCH receptor (Homo sapiens, UniProt Q99705)", "assay": "High throughput functional screening FLIPR/FDSS6000: inhibition of MCH-evoked intracellular Ca2+ changes", "assay_type": "cell-based", "conditions": "class by percent of control at 10^−7 M or by IC50; read-out: class", "procedure,_shortened": "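Seed cells the day before, then load them with Fluo4-AM for one hour at 37° C and wash in HEPES-buffered HBSS, pH 7.4. Add compound for 3 min, then stimulate with 50 nM MCH. Monitor the calcium transient for 290 s.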", "units": {"IC50": "µM"}, "values": [{"compound": "CN(C)c1nc(N[C@H]2CC[C@@H](CNC(=O)c3cc(F)ccc3F)C2)nc2ccccc12", "note": "[Example 1129, N-[((1R,3S)-3-{[4-(dimethylamino)quinazolin-2-yl]amino}cyclopentyl)methyl]-2,5-difluorobenzamide]", "IC50": "0.05 to 0.2"}, {"compound": "CN(C)c1nc(N[C@H]2CC[C@@H](CNC(=O)c3cc(F)cc(F)c3)C2)nc2ccccc12", "note": "[Example 1130, N-[((1R,3S)-3-{[4-(dimethylamino)quinazolin-2-yl]amino}cyclopentyl)methyl]-3,5-difluorobenzamide]", "IC50": "< 0.05"}, {"compound": "CN(C)c1nc(NC[C@@H]2CC[C@H](NC(=O)c3cccc(F)c3)C2)nc2ccccc12", "note": "[Example 1132, N-[(1S,3R)-3-({[4-(dimethylamino)quinazolin-2-yl]amino}methyl)cyclopentyl]-3-fluorobenzamide]", "IC50": "> 0.2"}, {"compound": "CN(C)c1nc(NC[C@@H]2CC[C@H](NC(=O)c3ccc(F)cc3F)C2)nc2ccccc12", "note": "[Example 1133, N-[(1S,3R)-3-({[4-(dimethylamino)quinazolin-2-yl]amino}methyl)cyclopentyl]-2,4-difluorobenzamide]", "IC50": "> 0.2"}, {"compound": "CN(C)c1nc(N[C@H]2CC[C@@H](C(=O)NCc3ccccc3)CC2)nc2ccccc12", "note": "[Example 1135, cis-N-benzyl-4-{[4-(dimethylamino)quinazolin-2-yl]amino}cyclohexanecarboxamide]", "IC50": "< 0.05"}, {"compound": "CN(C)c1nc(N[C@H]2CC[C@@H](C(=O)NCc3ccc(Cl)nc3)CC2)nc2ccccc12", "note": "[Example 1136, cis-N-[(6-chloropyridin-3-yl)methyl]-4-{[4-(dimethylamino)quinazolin-2-yl]amino}cyclohexanecarboxamide]", "IC50": "< 0.05"}, {"compound": "COc1cccc([C@@H](C)NC(=O)[C@H]2CC[C@@H](Nc3nc(N(C)C)c4ccccc4n3)CC2)c1", "note": "[Example 1137, cis-4-{[4-(dimethylamino)quinazolin-2-yl]amino}-N-[(1R)-1-(3-methoxyphenyl)ethyl]cyclohexanecarboxamide]", "IC50": "< 0.05"}, {"compound": "C[C@@H](NC(=O)[C@H]1CC[C@@H](Nc2nc(N(C)C)c3ccccc3n2)CC1)c1ccc(Cl)cc1", "note": "[Example 1139, cis-N-[(1R)-1-(4-chlorophenyl)ethyl)-4-{[4-(dimethylamino)quinazolin-2-yl]amino}cyclohexanecarboxamide]", "IC50": "< 0.05"}, {"compound": "C[C@H](NC(=O)[C@H]1CC[C@@H](Nc2nc(N(C)C)c3ccccc3n2)CC1)c1cccc2ccccc12", "note": "[Example 1141, cis-4-{[4-(dimethylamino)quinazolin-2-yl]amino}-N-[(1S)-1-(1-naphthyl)ethyl]cyclohexanecarboxamide]", "IC50": "< 0.05"}, {"compound": "Cc1cc(C)cc(CNC(=O)[C@H]2CC[C@@H](Nc3nc(N(C)C)c4ccccc4n3)CC2)c1", "note": "[Example 1142, cis-4-{[4-(dimethylamino)quinazolin-2-yl]amino}-N-(3,5-dimethylbenzyl)cyclohexanecarboxamide]", "IC50": "< 0.05"}, {"compound": "Cc1ccc(CNC(=O)[C@H]2CC[C@@H](Nc3nc(N(C)C)c4ccccc4n3)CC2)cc1F", "note": "[Example 1143, cis-4-{[4-(dimethylamino)quinazolin-2-yl]amino}-N-(3-fluoro-4-methylbenzyl)cyclohexanecarboxamide]", "IC50": "0.05 to 0.2"}, {"compound": "Cc1c(Cl)cccc1CNC(=O)[C@H]1CC[C@@H](Nc2nc(N(C)C)c3ccccc3n2)CC1", "note": "[Example 1144, cis-N-(3-chloro-2-methylbenzyl)-4-{[4-(dimethylamino)quinazolin-2-yl]amino}cyclohexanecarboxamide]", "IC50": "< 0.05"}, {"compound": "Cc1ccc(Cl)cc1CNC(=O)[C@H]1CC[C@@H](Nc2nc(N(C)C)c3ccccc3n2)CC1", "note": "[Example 1145, cis-N-(5-chloro-2-methylbenzyl)-4-{[4-(dimethylamino)quinazolin-2-yl]amino}cyclohexanecarboxamide]", "IC50": "0.05 to 0.2"}, {"compound": "Cc1ccc(F)cc1CNC(=O)[C@H]1CC[C@@H](Nc2nc(N(C)C)c3ccccc3n2)CC1", "note": "[Example 1146, cis-4-{[4-(dimethylamino)quinazolin-2-yl]amino}-N-(5-fluoro-2-methylbenzyl)cyclohexanecarboxamide]", "IC50": "< 0.05"}, {"compound": "CN(C)c1nc(N[C@H]2CC[C@@H](C(=O)NCc3c(F)ccc(Cl)c3F)CC2)nc2ccccc12", "note": "[Example 1147, cis-N-(3-chloro-2,6-difluorobenzyl)-4-{[4-(dimethylamino)quinazolin-2-yl]amino}cyclohexanecarboxamide]", "IC50": "< 0.05"}, {"compound": "CN(C)c1nc(N[C@H]2CC[C@@H](C(=O)NCc3cccc(-c4ccccc4)c3)CC2)nc2ccccc12", "note": "[Example 1148, cis-N-(biphenyl-3-ylmethyl)-4-{[4-(dimethylamino)quinazolin-2-yl]amino}cyclohexanecarboxamide]", "IC50": "< 0.05"}, {"compound": "Cc1ccc(Cl)c(CNC(=O)[C@H]2CC[C@@H](Nc3nc(N(C)C)c4ccccc4n3)CC2)c1F", "note": "[Example 1150, cis-N-(6-chloro-2-fluoro-3-methylbenzyl)-4-{[4-(dimethylamino)quinazolin-2-yl]amino}cyclohexanecarboxamide]", "IC50": "< 0.05"}, {"compound": "CN(C)c1nc(N[C@H]2CC[C@@H](C(=O)NCc3ccccc3F)CC2)nc2ccccc12", "note": "[Example 1151, cis-4-{[4-(dimethylamino)quinazolin-2-yl]amino}-N-(2-fluorobenzyl)cyclohexanecarboxamide]", "IC50": "< 0.05"}, {"compound": "CN(C)c1nc(N[C@H]2CC[C@@H](C(=O)NCc3c(F)cccc3F)CC2)nc2ccccc12", "note": "[Example 1152, cis-N-(2,6-difluorobenzyl)-4-{[4-(dimethylamino)quinazolin-2-yl]amino}cyclohexanecarboxamide]", "IC50": "< 0.05"}, {"compound": "CN(C)c1nc(N[C@H]2CC[C@@H](C(=O)NCc3ccc(C(F)(F)F)cc3)CC2)nc2ccccc12", "note": "[Example 1153, cis-4-{[4-(dimethylamino)quinazolin-2-yl]amino}-N-[4-(trifluoromethyl)benzyl]cyclohexanecarboxamide]", "IC50": "< 0.05"}, {"compound": "CN(C)c1nc(N[C@H]2CC[C@@H](C(=O)NCc3cccc4ccccc34)CC2)nc2ccccc12", "note": "[Example 1154]", "IC50": "< 0.05"}, {"compound": "CN(C)c1nc(N[C@H]2CC[C@@H](C(=O)NCc3ccc(Cl)cc3)CC2)nc2ccccc12", "note": "[Example 1155, cis-N-(4-chlorobenzyl)-4-{[4-(dimethylamino)quinazolin-2-yl]amino}cyclohexanecarboxamide]", "IC50": "< 0.05"}, {"compound": "CN(C)c1nc(N[C@H]2CC[C@@H](C(=O)NCc3ccc(Cl)c(Cl)c3)CC2)nc2ccccc12", "note": "[Example 1156, cis-N-(3,4-dichlorobenzyl)-4-{[4-(dimethylamino)quinazolin-2-yl]amino}cyclohexanecarboxamide]", "IC50": "< 0.05"}, {"compound": "CN(C)c1nc(N[C@H]2CC[C@@H](C(=O)NCc3cccc(F)c3)CC2)nc2ccccc12", "note": "[Example 1157, cis-4-{[4-(dimethylamino)quinazolin-2-yl]amino}-N-(3-fluorobenzyl)cyclohexanecarboxamide]", "IC50": "< 0.05"}, {"compound": "CN(C)c1nc(N[C@H]2CC[C@@H](C(=O)NCc3cc(F)ccc3F)CC2)nc2ccccc12", "note": "[Example 1158, cis-N-(2,5-difluorobenzyl)-4-{[4-(dimethylamino)quinazolin-2-yl]amino}cyclohexanecarboxamide]", "IC50": "< 0.05"}, {"compound": "CN(C)c1nc(N[C@H]2CC[C@@H](C(=O)NCc3cccc(F)c3F)CC2)nc2ccccc12", "note": "[Example 1159, cis-N-(2,3-difluorobenzyl)-4-{[4-(dimethylamino)quinazolin-2-yl]amino}cyclohexanecarboxamide]", "IC50": "< 0.05"}, {"compound": "CN(C)c1nc(N[C@H]2CC[C@@H](C(=O)NCc3cccc(Br)c3)CC2)nc2ccccc12", "note": "[Example 1160, cis-N-(3-bromobenzyl)-4-{[4-(dimethylamino)quinazolin-2-yl]amino}cyclohexanecarboxamide]", "IC50": "< 0.05"}, {"compound": "CN(C)c1nc(N[C@H]2CC[C@@H](C(=O)NCc3ccc(F)c(Br)c3)CC2)nc2ccccc12", "note": "[Example 1161, cis-N-(3-bromo-4-fluorobenzyl)-4-{[4-(dimethylamino)quinazolin-2-yl]amino}cyclohexanecarboxamide]", "IC50": "< 0.05"}, {"compound": "CN(C)c1nc(N[C@H]2CC[C@@H](C(=O)NCc3ccc(Br)cc3F)CC2)nc2ccccc12", "note": "[Example 1162, cis-N-(4-bromo-2-fluorobenzyl)-4-{[4-(dimethylamino)quinazolin-2-yl]amino}cyclohexanecarboxamide]", "IC50": "< 0.05"}, {"compound": "CN(C)c1nc(N[C@H]2CC[C@@H](C(=O)NCc3cc(Br)ccc3F)CC2)nc2ccccc12", "note": "[Example 1163, cis-N-(5-bromo-2-fluorobenzyl)-4-{[4-(dimethylamino)quinazolin-2-yl]amino}cyclohexanecarboxamide]", "IC50": "< 0.05"}, {"compound": "CN(C)c1nc(N[C@H]2CC[C@@H](C(=O)NCc3ccc(Cl)cc3F)CC2)nc2ccccc12", "note": "[Example 1164, cis-N-(4-chloro-2-fluorobenzyl)-4-{[4-(dimethylamino)quinazolin-2-yl]amino}cyclohexanecarboxamide]", "IC50": "< 0.05"}, {"compound": "Cc1cccc(CNC(=O)[C@H]2CC[C@@H](Nc3nc(N(C)C)c4ccccc4n3)CC2)c1", "note": "[Example 1165, cis-4-{[4-(dimethylamino)quinazolin-2-yl]amino}-N-(3-methylbenzyl)cyclohexanecarboxamide]", "IC50": "< 0.05"}, {"compound": "Cc1ccccc1CNC(=O)[C@H]1CC[C@@H](Nc2nc(N(C)C)c3ccccc3n2)CC1", "note": "[Example 1166, cis-4-{[4-(dimethylamino)quinazolin-2-yl]amino}-N-(2-methylbenzyl)cyclohexanecarboxamide]", "IC50": "< 0.05"}, {"compound": "CN(C)c1nc(N[C@H]2CC[C@@H](C(=O)NCc3ccccc3OC(F)(F)F)CC2)nc2ccccc12", "note": "[Example 1167, cis-4-{[4-(dimethylamino)quinazolin-2-yl]amino}-N-[2-(trifluoromethoxy)benzyl]cyclohexanecarboxamide]", "IC50": "< 0.05"}, {"compound": "CN(C)c1nc(N[C@H]2CC[C@@H](C(=O)NCc3ccc(F)c(F)c3F)CC2)nc2ccccc12", "note": "[Example 1169, cis-4-{[4-(dimethylamino)quinazolin-2-yl]amino}-N-(2,3,4-trifluorobenzyl)cyclohexanecarboxamide]", "IC50": "< 0.05"}]}]}
